Measurements from patent publication US7776847B2, “Benzisothiazoles useful for treating or preventing HCV infection” (priority 2005, dated 2010).

The compounds below were run on HCV replicon (assay: HCV replicon luciferase reporter assay). Conditions: Hepatitis C virus, Table 5; read-out: IC50.
Assay type: cell-based
Procedure: The inhibitory activity of certain exemplary compounds of the invention was confirmed using an HCV replicon assay. The HCV replicon can include such features as the HCV IRES, the HCV 3′ untranslated region, selected HCV genes encoding HCV polypeptides, selectable markers, and a reporter gene such as luciferase, GFP, etc. In the assay, actively dividing replicon-comprising cells were seeded at a density of between about 5,000 and 7,500 cells/well onto 96 well plates (about 90 μl of cells per well) and incubated at 37° C. and 5% CO2 for 24 hours. Then, the test compound (in a volume of about 10 μL) was added at various concentrations to each well and the cells were incubated for an additional 24-48 hours. The cells were harvested, and HCV replication or translation was monitored via a reporter assay, e.g., a luciferase reporter assay. The media was aspirated from each cell and Bright-Glo ([…].) luciferase assay reagents were added to each well according to the manufacturer's instructions. In this assay, the amount of test compound that yielded a 50% reduction in luciferase activity (IC50) was determined.

`COc1ccc(-c2ccc(C(=O)NCCCNc3nsc4ccc(-c5ccccc5)cc34)cc2)cc1` [Compound 405, 4′-methoxy-N-(3-(5-phenylbenzo[d]isothiazol-3-ylamino)propyl)biphenyl-4-carboxamide] and `COc1ccc(-c2ccc(C(=O)NCCCNc3nsc4ccc(-c5ccc(OC)cc5)cc34)cc2)cc1` [Compound 406, 4′-methoxy-N-(3-(5-(4-methoxyphenyl)benzo[d]isothiazol-3-ylamino)propyl)biphenyl-4-carboxamide] cannot be ordered by IC50: < 5 µM for the first, < 5 µM for the second.

`COc1cccc(CNCCCNc2nsc3ccccc23)c1` [Compound 343, N^1-(benzo[d]isothiazol-3-yl)-N^3-(3-methoxybenzyl)propane-1,3-diamine] and `COc1cccc(S(=O)(=O)NCCCNc2nsc3ccccc23)c1` [Entry 220, N-(3-(benzo[d]isothiazol-3-ylamino)propyl)-3-methoxybenzenesulfonamide] cannot be ordered by IC50: < 5 µM for the first, < 5 µM for the second.

Going from `COc1cccc(S(=O)(=O)N(C)CCCN(C)c2nsc3ccccc23)c1` [Compound 344, N-(3-(benzo[d]isothiazol-3-yl(methyl)amino)propyl)-3-methoxy-N-methylbenzenesulfonamide] to `O=S(=O)(NCCCNc1nsc2ccccc12)c1cccc(Br)c1` [Compound 268, N-(3-(benzo[d]isothiazol-3-ylamino)propyl)-3-bromobenzenesulfonamide], the IC50 falls from > 5 µM to < 5 µM. The second is the more potent here.

`O=C(NCCCNc1nsc2ccccc12)c1cccc(C2=CCNCC2)c1` [Compound 394, N-(3-(benzo[d]isothiazol-3-ylamino)propyl)-3-(1,2,3,6-tetrahydropyridin-4-yl)benzamide] and `O=C(NCCCNc1nsc2ccccc12)c1ccc2[nH]ccc2c1` [Compound 450, N-(3-(benzo[d]isothiazol-3-ylamino)propyl)-1H-indole-5-carboxamide] cannot be ordered by IC50: < 5 µM for the first, < 5 µM for the second.

`CCCCc1ccc(NCCCNc2nsc3ccccc23)cc1` [Compound 295, N^1-(benzo[d]isothiazol-3-yl)-N^3-(4-butylphenyl)propane-1,3-diamine] and `CCCCc1ccc(CN(CCCNc2nsc3ccccc23)C(=O)c2ccccn2)cc1` [Compound 293, N-(3-(benzo[d]isothiazol-3-ylamino)propyl)-N-(4-butylbenzyl)picolinamide] cannot be ordered by IC50: < 5 µM for the first, < 5 µM for the second.

First: CCCCNC(=O)c1ccc(C(=O)NCCNc2nsc3ccccc23)cc1 [Compound 422, N^1-(2-(benzo[d]isothiazol-3-ylamino)ethyl)-N^4-butylterephthalamide]
Second: CCCNC(=O)c1ccc(C(=O)NCCNc2nsc3ccccc23)cc1 [Compound 418, N^1-(2-(benzo[d]isothiazol-3-ylamino)ethyl)-N^4-propylterephthalamide]
The IC50 of the first is lower: < 5 µM for the first, > 5 µM for the second. The first is the more potent here.

`COc1cccc(NCCCNc2nsc3ccccc23)n1` [Compound 283, N^1-(benzo[d]isothiazol-3-yl)-N^3-(6-methoxypyridin-2-yl)propane-1,3-diamine] and `Clc1ccc(NCCCNc2nsc3ccccc23)nc1` [Entry 226, N-(3-(5-chloropyridin-2-ylamino)propyl)benzo[d]isothiazol-3-amine] cannot be ordered by IC50: < 5 µM for the first, < 5 µM for the second.

First: O=C(NCCCNc1nsc2ccccc12)c1cccc(Br)n1 [Compound 419, N-(3-(benzo[d]isothiazol-3-ylamino)propyl)-6-bromopicolinamide]
Second: O=C(NCCNc1nsc2ccccc12)c1cccc(Br)n1 [Entry 27, N-(2-(Benzo[d]isothiazol-3-ylamino)ethyl)-6-bromopicolinamide]
The IC50 of the first is lower: < 5 µM for the first, > 5 µM for the second.

`COc1ccc(OC)c(-c2cccc(C(=O)NCCCNc3nsc4ccccc34)c2)c1` [Compound 382, N-(3-(benzo[d]isothiazol-3-ylamino)propyl)-3′,6′-dimethoxybiphenyl-3-carboxamide] and `COc1cc(F)ccc1-c1cccc(C(=O)NCCCNc2nsc3ccccc23)c1` [Compound 368, N-(3-(benzo[d]isothiazol-3-ylamino)propyl)-4′-fluoro-6′-methoxybiphenyl-3-carboxamide] cannot be ordered by IC50: < 5 µM for the first, < 5 µM for the second.

`c1ccc2c(NCCCNc3nsc4ccccc34)nsc2c1` [Compound 434, N^1,N^3-di(benzo[d]isothiazol-3-yl)propane-1,3-diamine] and `N#Cc1cccnc1NCCCNc1nsc2ccccc12` [Compound 277, 2-(3-(benzo[d]isothiazol-3-ylamino)propylamino)nicotinonitrile] cannot be ordered by IC50: < 5 µM for the first, < 5 µM for the second.

Compared with `O=C(NCCNc1nsc2ccccc12)C1CCCNC1` (stereo not drawn) [Entry 73, N-(2-(Benzo[d]isothiazol-3-ylamino)ethyl)piperidine-3-carboxamide], `O=C(NCCNc1nsc2ccccc12)c1ccccn1` [Entry 25, N-(2-(Benzo[d]isothiazol-3-ylamino)ethyl)picolinamide] is lower in IC50: > 5 µM for the first, < 5 µM for the second.

`CC(C)NC(=O)c1ccc(C(=O)NCCNc2nsc3ccccc23)cc1` [Compound 426, N^1-(2-(benzo[d]isothiazol-3-ylamino)ethyl)-N^4-isopropylterephthalamide] and `O=C(NCCNc1nsc2ccccc12)c1ccc(C(=O)NC2CC2)cc1` [Compound 427, N^1-(2-(benzo[d]isothiazol-3-ylamino)ethyl)-N^4-cyclopropylterephthalamide] cannot be ordered by IC50: < 5 µM for the first, < 5 µM for the second.

`c1ccc(COc2cccc(CNCCCNc3nsc4ccccc34)c2)cc1` [Compound 328, N^1-(benzo[d]isothiazol-3-yl)-N^3-(3-(benzyloxy)benzyl)propane-1,3-diamine] and `c1ccc(-c2ncc(CNCCCNc3nsc4ccccc34)[nH]2)cc1` [Compound 329, N^1-(benzo[d]isothiazol-3-yl)-N^3-((2-phenyl-1H-imidazol-4-yl)methyl)propane-1,3-diamine] cannot be ordered by IC50: < 5 µM for the first, < 5 µM for the second.

`O=C(O)COc1ccc(C(=O)NCCCNc2nsc3ccccc23)cc1` [Entry 238, 2-(4-(3-(benzo[d]isothiazol-3-ylamino)propylcarbamoyl)phenoxy) acetic acid] and `O=Cc1cccc(C(=O)NCCNc2nsc3ccccc23)c1` [Compound 414, N-(2-(benzo[d]isothiazol-3-ylamino)ethyl)-3-formylbenzamide] cannot be ordered by IC50: > 5 µM for the first, > 5 µM for the second.

`Cc1ccc(OC(C)C)c(-c2ccc(NC(=O)NCCCNc3nsc4ccccc34)cc2)c1` [Compound 392, 1-(3-(benzo[d]isothiazol-3-ylamino)propyl)-3-(2′-isopropoxy-5′-methylbiphenyl-4-yl)urea] and `COc1ccc(-c2ccc(C(=O)NCCNc3nsc4ccccc34)cc2)cc1OC` [Compound 361, N-(2-(benzo[d]isothiazol-3-ylamino)ethyl)-3′,4′-dimethoxybiphenyl-4-carboxamide] cannot be ordered by IC50: < 5 µM for the first, < 5 µM for the second.

`COc1ccc(-c2ccccc2CNCCCNc2nsc3ccccc23)cc1OC` [Compound 313, N^1-(benzo[d]isothiazol-3-yl)-N^3-((3′,4′-dimethoxybiphenyl-2-yl)methyl)propane-1,3-diamine] and `COc1ccccc1-c1cccc(C(=O)NCCCNc2nsc3ccccc23)c1` [Compound 384, N-(3-(benzo[d]isothiazol-3-ylamino)propyl)-6′-methoxybiphenyl-3-carboxamide] cannot be ordered by IC50: < 5 µM for the first, < 5 µM for the second.

Going from `COC(=O)c1ccc(S(=O)(=O)N(CCCNc2nsc3ccccc23)Cc2ccc(-c3ccc(OC)cc3)cc2)n1C` [Compound 317, methyl 5-(N-(3-(benzo[d]isothiazol-3-ylamino)propyl)-N-((4′-methoxybiphenyl-4-yl)methyl)sulfamoyl)-1-methyl-1H-pyrrole-2-carboxylate] to `O=C(NCCNc1nsc2ccccc12)c1ccc2ccccc2n1` [Entry 79, N-(2-(Benzo[d]isothiazol-3-ylamino)ethyl)quinoline-2-carboxamide], the IC50 rises from < 5 µM to > 5 µM. The first is the more potent here.

`O=C(NCCCNc1nsc2ccccc12)c1cccc(OCC(O)CN2CCOCC2)c1` (stereo not drawn) [Entry 232, N-(3-(benzo[d]isothiazol-3-ylamino)propyl)-3-(2-hydroxy-3-morpholinopropoxy)benzamide] and `Nc1ccc2sc(C(=O)NCCCNc3nsc4ccccc34)cc2c1` [Compound 459, 5-amino-N-(3-(benzo[d]isothiazol-3-ylamino)propyl)benzo[b]thiophene-2-carboxamide] cannot be ordered by IC50: < 5 µM for the first, < 5 µM for the second.

First: O=C(NCCNc1nsc2ccccc12)c1cc(F)ccc1F [Compound 350, N-(2-(benzo[d]isothiazol-3-ylamino)ethyl)-2,5-difluorobenzamide]
Second: O=C(NCCNc1nsc2ccccc12)c1c(Cl)cccc1Cl [Entry 41, N-(2-(Benzo[d]isothiazol-3-ylamino)ethyl)-2,6-dichlorobenzamide]
The IC50 of the first is lower: < 5 µM for the first, > 5 µM for the second.

`O=[N+]([O-])c1cccc(S(=O)(=O)NCCCNc2nsc3ccccc23)c1` [Compound 242, N-(3-(benzo[d]isothiazol-3-ylamino)propyl)-3-nitrobenzenesulfonamide] and `Cc1cc(S(=O)(=O)NCCCNc2nsc3ccccc23)ccc1Br` [Compound 265, N-(3-(benzo[d]isothiazol-3-ylamino)propyl)-4-bromo-3-methylbenzenesulfonamide] cannot be ordered by IC50: < 5 µM for the first, < 5 µM for the second.

Compared with `CCCNC(=O)Nc1ccc2oc(C(=O)NCCCNc3nsc4ccccc34)cc2c1` [Compound 455, N-(3-(benzo[d]isothiazol-3-ylamino)propyl)-5-(3-propylureido)benzofuran-2-carboxamide], `O=C1CCCN1c1ccc(CNCCCNc2nsc3ccccc23)cc1` [Compound 346, 1-(4-((3-(benzo[d]isothiazol-3-ylamino)propylamino)methyl)phenyl)pyrrolidin-2-one] is higher in IC50: < 5 µM for the first, > 5 µM for the second.
